# Test results as given in US20250339531A1, “DUX4 POLYPEPTIDES AND NUCLEIC ACIDS FOR TREATING INFLAMMATORY AND AUTOIMMUNE CONDITIONS” (Fred Hutchinson Cancer Center, priority 2021, published 2025).
# Entries after “also recorded” stand apart in the source; their conditions may differ.
# What was measured:
# STAT1 = biological target: T1, STAT1 (Homo sapiens, UniProt P42224); assay: Immunofluorescence of STAT1 distribution; format: cell-based; details: MB135 cells, IFNG ± doxycycline
# T1 construct: co-localization of endogenous STAT1 and pSTAT1 701 with the iDUX4-CTD; endogenous in cells; host or cells: MB135 human myoblasts carrying doxycycline-inducible DUX4 / DUX4-CTD / DUXB / Dux transgenes, with or without IFNG
# T1 sequence (P42224 1-750): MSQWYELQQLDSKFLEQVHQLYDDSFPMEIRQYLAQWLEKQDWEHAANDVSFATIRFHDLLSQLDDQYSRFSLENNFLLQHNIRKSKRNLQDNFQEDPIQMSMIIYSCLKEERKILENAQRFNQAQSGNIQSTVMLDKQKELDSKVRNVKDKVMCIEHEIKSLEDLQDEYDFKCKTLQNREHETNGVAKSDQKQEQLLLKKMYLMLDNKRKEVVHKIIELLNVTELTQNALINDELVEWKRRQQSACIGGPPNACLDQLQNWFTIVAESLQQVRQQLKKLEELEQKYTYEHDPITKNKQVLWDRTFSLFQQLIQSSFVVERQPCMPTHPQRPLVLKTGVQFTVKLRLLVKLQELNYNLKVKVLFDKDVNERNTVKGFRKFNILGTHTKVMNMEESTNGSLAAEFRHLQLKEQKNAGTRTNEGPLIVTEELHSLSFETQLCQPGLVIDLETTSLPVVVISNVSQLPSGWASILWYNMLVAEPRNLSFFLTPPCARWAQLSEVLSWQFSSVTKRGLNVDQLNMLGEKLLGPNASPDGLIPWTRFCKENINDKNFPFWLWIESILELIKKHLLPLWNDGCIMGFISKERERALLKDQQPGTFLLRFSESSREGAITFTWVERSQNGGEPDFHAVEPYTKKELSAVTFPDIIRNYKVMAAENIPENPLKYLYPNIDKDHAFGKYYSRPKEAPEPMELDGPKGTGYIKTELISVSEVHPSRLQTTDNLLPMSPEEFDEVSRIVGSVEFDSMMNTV
# Protocol: Cells were fixed for 10 minutes with 2% paraformaldehyde (Thermo Scientific) for DUX4/STAT1 and 4% paraformaldehyde for DUX4/IDO1 then permeabilized for 10 minutes with 0.5% Triton X-100 (Sigma), both at room temperature with gentle shaking. Cells were then blocked for 2 hours with PBS/0.3M glycine/3% BSA at room temperature with gentle shaking. Primary antibodies were incubated at 4° C. overnight: mouse anti-FLAG M2 1:500 (Sigma #F1804), rabbit anti-STAT1 mAb 1:750 (Abcam #ab109320), rabbit anti-IDO1 (D5J4E) 1:100 (Cell Signaling Tech 86630S), and mouse anti-DUX4 (P2G4) 1:250 (Geng et al., 2011). Cells were washed three times with 1×PBS containing 3% BSA, then secondary antibodies were incubated for 1 hr at room temperature: FITC-conjugated donkey anti-rabbit (Jackson immunoResearch) or TRITC-conjugated donkey anti-mouse (Jackson ImmunoResearch). Cells were washed once with 1×PBS containing 3% BSA then stained with DAPI (Sigma) for 10′ at room temperature and then visualized.
# [1] = test system: de novo protein synthesis; assay: [35S]-methionine/cysteine metabolic labeling of nascent protein synthesis; format: cell-based; details: human myoblasts, 20-92 h after 4 h doxycycline pulse
# Protocol: Cells were treated with and without a 4-hour pulse of doxycycline. Eight hours prior to harvest, cells were incubated in DMEM depleted for methionine and cysteine (Gibco) supplemented with 90 microcurie 35S-methionine/cysteine (Perkin Elmer) and 50 ng/ml […] (R&D Systems). Protein samples were harvested in RIPA buffer [150 mM NaCl, 1% NP-40, 0.5% Na-deocycholate, 1% SDS, 25 mM Tris-HCl pH7.4] supplemented with protease and phosphatase inhibitor tablets (Pierce), followed by sonication in Diagenode Bioruptor. Lysate was cleared by centrifugation at 16000×g and quantified using a Pierce BCA assay (Thermo Scientific). Samples were run on NuPAGE precast polyacrylamide gels (Invitrogen). Gels were stained with InstantBlue Coomassie (Abcam) following manufacturer protocol, placed on whatman paper, wrapped in plastic wrap, and dried. Gels were exposed to phosphor screen, imaged on Typhoon Trio imager, and analyzed with ImageQuant.
# T-cell activation = assay: Activation of NYESO TCR-engineered T cells by NYESO expressing MEL375 cells (IFNG and IL-2 secretion); format: cell-based, human; details: pulse-expression 24 hrs prior to T-cell addition
# Excerpt: To determine whether the combined short- and long-term mechanisms of MHC protein expression in response to cytokine signaling is sufficient to prevent T-cell activation, NYESO expressing MEL375 cells were used in an assay with T-cells engineered with the TCR (T Cell Receptor) for the NYESO antigen and measured T-cell activation by secretion of IFNG and IL-2.
# [2] = test system: STAT1 binding to ISG promoters (GBP1, IDO1, CXCL10); assay: STAT1 chromatin immunoprecipitation (ChIP-qPCR) at ISG promoters; format: cell-based, human; details: MB135-iDUX4-CTD cells, IFNG ± doxycycline
# Protocol: Chromatin immunoprecipitation (ChIP) was performed as previously described (Nelson et al 2006) with the following modifications: Cells were plated and allowed to grow to 70-80% confluence. Pelleted nuclei were sonicated on a Diagenode Biruptor on “Low” for 10 min as 30 sec on/30 sec off, followed by 6 rounds of sonication on “High” for 10 min each as 30 sec on/30 sec off (70 minutes total sonication) in IP Buffer+0.5% SDS. For immunoprecipitation, 500 ng of chromatin was set aside per condition as an “Input” and 4 μg of antibody was added to 10 μg of chromatin in an equal volume of IP Buffer+0.5% SDS across samples. IP Buffer (150 mM NaCl, 50 mM Tris-HCl pH 7.4, 5 mM EDTA, 1% Triton X-100, 0.5% NP-40, +Roche complete mini protease inhibitor EDTA-free) was added to lower the percentage of SDS <0.1%, and tubes were incubated with rotation overnight at 4° C. During this time, protein-A agarose Fastflow beads (Millipore) were washed twice with IP Buffer and then blocked in IP Buffer containing 2% BSA by rotating overnight at 4° C. After clearing the chromatin as described, beads were aliquoted to fresh tubes and the top 90% of chromatin was transferred to the tubes containing the blocked bead slurry. Tubes were rotated for 1 hour at 4° C. […]
substance,measurement,setting,value
DUX4: human DUX4 protein SEQ ID NO:3 expressed from doxycycline inducible codon altered transgene SEQ ID NO:2,STAT1 nuclear distribution,STAT1,no longer evenly distributed in the nucleus and shows overall decreased abundance
same,nascent protein synthesis by 35S labeling,[1],global de novo protein synthesis was transiently reduced
same,nascent protein synthesis by 35S labeling,[1]; listed as wildtype DUX4,a reduction in labeled nascent proteins several days following a pulse
same,T-cell activation (IFNG and IL-2 secretion),T-cell activation,completely blocks the T-cell activation by the NYESO expressing MEL375 cells
"longCTD: 3×FLAG tag and nls in frame with carboxyterminal 271 amino acids of DUX4 (aa154-424), SEQ ID NOS: 8-9",STAT1 occupancy at ISG promoters,[2],diminished STAT1 occupancy at all three ISGs; also recorded: moderately decreases STAT1 occupancy at ISG promoters
